Data from patent publication US9777005B2 (Takeda Pharmaceutical Company Limited, priority 2012, dated 2017).

Molecular target: T1, human M1 receptor (hCHRM1) (Homo sapiens, UniProt P11229)
T1 construct: expressed in transfected cells; host or cells: CHO-K1
T1 sequence (P11229 1-460): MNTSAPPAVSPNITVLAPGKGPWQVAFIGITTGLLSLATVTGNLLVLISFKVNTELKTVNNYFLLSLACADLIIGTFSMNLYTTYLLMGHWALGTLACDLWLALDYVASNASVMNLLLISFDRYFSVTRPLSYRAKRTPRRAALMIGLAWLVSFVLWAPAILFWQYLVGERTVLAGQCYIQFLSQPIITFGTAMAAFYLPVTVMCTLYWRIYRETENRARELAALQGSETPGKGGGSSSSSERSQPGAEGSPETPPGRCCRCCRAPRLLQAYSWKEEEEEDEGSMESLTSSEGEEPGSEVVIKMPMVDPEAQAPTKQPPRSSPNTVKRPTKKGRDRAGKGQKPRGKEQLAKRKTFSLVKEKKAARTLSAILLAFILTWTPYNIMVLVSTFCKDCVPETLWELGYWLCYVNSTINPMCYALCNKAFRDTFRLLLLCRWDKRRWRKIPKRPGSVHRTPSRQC
Test: Measurement of M1 receptor positive allosteric modulator (M1PAM) activity, calcium fluorescence (FLIPRtetra) in CHO-K1 cells in the presence of acetylcholine at EC20
Type: cell-based
Details: in the presence of acetylcholine at EC20 (final 0.6 nM), CHO-K1 cells expressing hCHRM1; for EC50: inflection point of M1PAM activity, read-out: IP value; for activity (%) at 10 μM: test compound 10 μM
Procedure, shortened: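 PAM activity was measured as calcium flux by FLIPRtetra over 1 min after co-addition of compound and EC20 acetylcholine (final 0.6 nM) to Fluo-4-loaded hCHRM1 CHO-K1 cells. The response was scaled between DMSO (0%) and 1 μM acetylcholine (100%), and the inflection point of the concentration curve gives the IP value.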

Compound | EC50 | activity (%) at 10 μM
O=C1c2c(cccc2O[C@@H]2CCOC[C@H]2O)CN1Cc1ccc(Cl)cc1 (single isomer, unassigned) [Example 292, 1,5-anhydro-3-O-(2-(4-chlorobenzyl)-3-oxo-2,3-dihydro-1H-isoindol-4-yl)-2-deoxy-threo-pentitol] | 48 nM | 101%
O=C1c2c(cccc2O[C@@H]2COCC[C@H]2O)CN1Cc1ccc(Cl)cc1 (single isomer, unassigned) [Example 295, 1,5-anhydro-2-O-(2-(4-chlorobenzyl)-3-oxo-2,3-dihydro-1H-isoindol-4-yl)-4-deoxy-threo-pentitol] | 150 nM | 100%
Cn1cc(-c2ccc(CN3Cc4ncnc(Oc5c(F)cccc5Cl)c4C3=O)cc2)cn1 [Example 396, 4-(2-chloro-6-fluorophenoxy)-6-(4-(1-methyl-TH-pyrazol-4-yl)benzyl)-6,7-dihydro-5H-pyrrolo[3,4-d]pyrimidin-5-one] | 33 nM | 95%
Cn1cc(-c2ccc(CN3Cc4ccnc(OCCC5CC5)c4C3=O)cc2)nn1 [Example 254, 4-(2-cyclopropylethoxy)-2-(4-(1-methyl-1H-1,2,3-triazol-4-yl)benzyl)-1,2-dihydro-3H-pyrrolo[3,4-c]pyridin-3-one] | 67 nM | 110%
Cn1ccc(-c2ccc(CN3Cc4ccnc(Oc5c(F)cc(F)cc5F)c4C3=O)cc2)n1 [Example 365, 2-(4-(1-methyl-1H-pyrazol-3-yl)benzyl)-4-(2,4,6-trifluorophenoxy)-1H-pyrrolo[3,4-c]pyridin-3(2H)-one] | 44 nM | 104%
Cc1nn(C)cc1-c1ccc(CN2Cc3cccc(O[C@@H]4COCC[C@H]4O)c3C2=O)cc1 [Example 251, 1,5-anhydro-2-deoxy-4-O-(2-(4-(1,3-dimethyl-1H-pyrazol-4-yl)benzyl)-3-oxo-2,3-dihydro-1H-isoindol-4-yl)-threo-pentitol] | 7.5 nM | 117%
Cc1cc(-c2ccc(CN3Cc4ccnc(O[C@@H]5CCC[C@H]5O)c4C3=O)cc2)ccn1 (single isomer, unassigned) [Example 242, 4-((trans-2-hydroxycyclopentyl)oxy)-2-(4-(2-methylpyridin-4-yl)benzyl)-1,2-dihydro-3H-pyrrolo[3,4-c]pyridin-3-one] | 8.2 nM | 110%
NC(=O)c1ccc(CN2Cc3cccc(Oc4ccc(C(F)(F)F)cc4F)c3C2=O)cc1 [Example 460, 4-((7-(2-fluoro-4-(trifluoromethyl)phenoxy)-1-oxo-1,3-dihydro-2H-isoindol-2-yl)methyl)benzamide] | 17 nM | 96%
Cc1cc(-c2ccc(CN3Cc4ccnc(Oc5ccc(Cl)cc5F)c4C3=O)cc2)ccn1 [Example 383, 4-(4-chloro-2-fluorophenoxy)-2-(4-(2-methylpyridin-4-yl)benzyl)-1,2-dihydro-3H-pyrrolo[3,4-c]pyridin-3-one] | 48 nM | 86%
N#Cc1cccc(F)c1Oc1cccc2c1C(=O)N(Cc1ccc(-n3cccn3)cc1)C2 [Example 66, 3-fluoro-2-((3-oxo-2-(4-(1H-pyrazol-1-yl)benzyl)-2,3-dihydro-1H-isoindol-4-yl)oxy)benzonitrile] | 69 nM | 101%
Cn1cnc(-c2ccc(CN3Cc4ccnc(Oc5ccc(C(F)(F)F)cc5F)c4C3=O)cc2)c1 [Example 419, 4-(2-fluoro-4-(trifluoromethyl)phenoxy)-2-(4-(1-methyl-1H-imidazol-4-yl)benzyl)-1,2-dihydro-3H-pyrrolo[3,4-c]pyridin-3-one] | 7.3 nM | 102%
C[C@@H](O)[C@@H](C)Oc1nccc2c1C(=O)N(Cc1ccc(F)cc1F)C2 [Example 424, 2-(2,4-difluorobenzyl)-4-(((2R,3R)-3-hydroxybutan-2-yl)oxy)-1,2-dihydro-3H-pyrrolo[3,4-c]pyridin-3-one] | 88 nM | 106%
Cc1cc(-c2ccc(CN3Cc4ccnc(OCc5ccccc5F)c4C3=O)c(F)c2)cnn1 [Example 344, 4-((2-fluorobenzyl)oxy)-2-(2-fluoro-4-(6-methylpyridazin-4-yl)benzyl)-1,2-dihydro-3H-pyrrolo[3,4-c]pyridin-3-one] | 55 nM | 97%
N#Cc1ccc(CN2Cc3cccc(O[C@H]4CCCC[C@@H]4O)c3C2=O)cc1 (relative stereo) [Example 33, 4-((7-((trans-2-hydroxycyclohexyl)oxy)-1-oxo-1,3-dihydro-2H-isoindol-2-yl)methyl)benzonitrile] | 77 nM | 98%
Cc1cc(-c2ccc(CN3Cc4ccnc(Oc5c(F)cc(C#N)cc5F)c4C3=O)cc2)ccn1 [Example 376, 3,5-difluoro-4-((2-(4-(2-methylpyridin-4-yl)benzyl)-3-oxo-2,3-dihydro-1H-pyrrolo[3,4-c]pyridin-4-yl)oxy)benzonitrile] | 6.9 nM | 106%
Cc1cc(C)c(Oc2nccc3c2C(=O)N(Cc2ccc(-c4cnn(C)c4)cc2)C3)c(F)c1 [Example 415, 4-(2-fluoro-4,6-dimethylphenoxy)-2-(4-(1-methyl-1H-pyrazol-4-yl)benzyl)-1,2-dihydro-3H-pyrrolo[3,4-c]pyridin-3-one] | 16 nM | 106%
O=C1c2c(ccnc2OCC2CCCO2)CN1Cc1ccc(-n2cccn2)cc1F (stereo not drawn) [Example 86, 2-(2-fluoro-4-(1H-pyrazol-1-yl)benzyl)-4-((tetrahydrofuran-2-yl)methoxy)-1,2-dihydro-3H-pyrrolo[3,4-c]pyridin-3-one] | 17 nM | 104%
O=C1c2c(cc(F)cc2O[C@H]2CCCC[C@@H]2O)CN1Cc1ccc(-n2cccn2)cc1 (relative stereo) [Example 244, 5-fluoro-7-((trans-2-hydroxycyclohexyl)oxy)-2-(4-(1H-pyrazol-1-yl)benzyl)isoindolin-1-one] | 16 nM | 104%
CCn1cc(-c2ccc(CN3Cc4ccnc(OC5CCC5)c4C3=O)cc2)cn1 [Example 404, 4-(cyclobutyloxy)-2-(4-(1-ethyl-1H-pyrazol-4-yl)benzyl)-1,2-dihydro-3H-pyrrolo[3,4-c]pyridin-3-one] | 53 nM | 87%
Cn1cc(-c2ccc(CN3Cc4cccc(OCCN5CCCCC5)c4C3=O)cc2)cn1 [Example 21, 2-(4-(1-methyl-1H-pyrazol-4-yl)benzyl)-7-(2-(piperidin-1-yl)ethoxy)isoindolin-1-one] | 96 nM | 105%
Cn1ccc(-c2ccc(CN3Cc4ncnc(Oc5ccc(C#N)cc5F)c4C3=O)cc2)n1 [Example 371, 3-fluoro-4-((6-(4-(1-methyl-1H-pyrazol-3-yl)benzyl)-5-oxo-6,7-dihydro-5H-pyrrolo[3,4-d]pyrimidin-4-yl)oxy)benzonitrile] | 13 nM | 99%
O=C1c2c(cccc2O[C@@H]2COCC[C@H]2O)CN1Cc1ccc(Br)cc1 (single isomer, unassigned) [Example 271, 1,5-anhydro-2-O-(2-(4-bromobenzyl)-3-oxo-2,3-dihydro-1H-isoindol-4-yl)-4-deoxy-threo-pentitol] | 130 nM | 97%
Cc1cc(-c2ccc(CN3Cc4ccnc(Oc5ccc(C(F)(F)F)cc5F)c4C3=O)cc2)cnn1 [Example 303, 4-(2-fluoro-4-(trifluoromethyl)phenoxy)-2-(4-(6-methylpyridazin-4-yl)benzyl)-1,2-dihydro-3H-pyrrolo[3,4-c]pyridin-3-one] | 8.5 nM | 91%
Cc1cc(-c2ccc(CN3Cc4cccc(OCC5CCCO5)c4C3=O)cc2)cnn1 (stereo not drawn) [Example 356, 2-(4-(6-methylpyridazin-4-yl)benzyl)-7-((tetrahydrofuran-2-yl)methoxy)isoindolin-1-one] | 49 nM | 101%
O=C1c2c(ccnc2OCC2CCCO2)CN1Cc1ccc(-n2cccn2)cc1 (stereo not drawn) [Example 61, 2-(4-(1H-pyrazol-1-yl)benzyl)-4-((tetrahydrofuran-2-yl)methoxy)-1H-pyrrolo[3,4-c]pyridin-3(2H)-one] | 37 nM | 113%
Cc1nn(C)cc1-c1ccc(CN2Cc3ccnc(OCC4(C)CC4)c3C2=O)c(F)c1 [Example 341, 2-(4-(1,3-dimethyl-1H-pyrazol-4-yl)-2-fluorobenzyl)-4-((1-methylcyclopropyl)methoxy)-1,2-dihydro-3H-pyrrolo[3,4-c]pyridin-3-one] | 63 nM | 93%
CNC(=O)c1ccc(CN2Cc3ccnc(Oc4ccc(C)cc4F)c3C2=O)cc1 [Example 433, 4-((4-(2-fluoro-4-methylphenoxy)-3-oxo-1,3-dihydro-2H-pyrrolo[3,4-c]pyridin-2-yl)methyl)-N-methylbenzamide] | 10 nM | 101%
